The assay deals with T1, cytoplasmic kinase domain of human IGF-1R (IGF-1R-GST) (Homo sapiens, UniProt P08069).
T1 construct: cytoplasmic kinase domain of human IGF-1R (amino acids 964-1370); GST (glutathione-S-transferase); made in house; host or cells: High Five insect cells (Invitrogen)
T1 sequence (P08069 964-1367 limits assumed): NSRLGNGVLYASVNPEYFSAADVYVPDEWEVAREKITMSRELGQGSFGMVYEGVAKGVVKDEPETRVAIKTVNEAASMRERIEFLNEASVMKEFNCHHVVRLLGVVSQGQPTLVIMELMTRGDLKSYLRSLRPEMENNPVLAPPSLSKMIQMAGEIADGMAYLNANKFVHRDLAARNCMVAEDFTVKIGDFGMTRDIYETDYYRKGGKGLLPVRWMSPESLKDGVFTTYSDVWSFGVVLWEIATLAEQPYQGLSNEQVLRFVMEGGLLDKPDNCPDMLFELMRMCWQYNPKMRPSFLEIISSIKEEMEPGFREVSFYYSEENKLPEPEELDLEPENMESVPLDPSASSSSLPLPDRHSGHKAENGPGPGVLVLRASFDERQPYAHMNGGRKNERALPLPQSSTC
The assay is described as follows: Insulin-like growth factor-1 receptor (IGF-1R) kinase assay (DELFIA). It counts as biochemical. As to conditions: IGF-1R-GST kinase activity, read-out: IGF1R IC50. The protocol:
Insulin-Like Growth Factor-1 Receptor (IGF-1R)-Kinase Assay
The kinase activity is measured by DELFIA® assay (dissociation-enhanced lanthanide fluorescence immunoassay, Perkin Elmer). […] Enzyme activity is measured in the presence of substances and a control substance. Poly-glutamate-tyrosine peptide (pEY, Sigma Aldrich) and biotinylated pEY (bio-pEY) are used as reaction substrates.
After 40 min at RT the reactions are stopped with 50 μL of stop solution (250 mM EDTA, 20 mM HEPES pH 7.4). 90 μL from each reaction are transferred onto streptavidin-coated 96-well plates. After 120 min incubation at RT the plates are washed three times with 200 μL phosphate-buffered saline (PBS) per well. The plates are incubated for 60 min with 100 μL of europium-coupled antibody against phospho-tyrosine (diluted 1/2000 in Perkin Elmer DELFIA assay buffer) per well. The plates are washed three times with 200 μL per well of DELFIA washing buffer. 100 μL DELFIA Enhancement Solution (Perkin Elmer) is added to each well, and the plates are incubated for 10 min. The fluorescence signal is measured with a Wallac Victor TRF Reader. IC50 values for the inhibition of the IGF-1R-kinase activity are calculated using the programmes Fifty (Version 2) and GraphPad (Version 3.0).
For `Cc1cc(C2CCCNC2)ccc1Nc1ncc(Br)c(NCc2cccc3c2C(C)(C)C(=O)N3)n1` (racemic) [Example I-7], the half-inhibitory concentration (IC50) is 0.69 nM.
In the case of `CC(=O)N1CCC(n2cc(Nc3ncc(Cl)c(NCc4cccc5c4C(C)(C)C(=O)N5)n3)cn2)CC1` [Example I-2], the IC50 stood at 21 nM.
On to `CN1CCN(c2ccc(Nc3ncc(Br)c(NCc4cccc5c4CC(=O)N5)n3)cc2)CC1` [Example I-8], for which the IC50 was 28 nM.
The figure for `COc1cc(N2CCNCC2)ccc1Nc1ncc(Cl)c(NCc2cccc3c2C(C)(C)C(=O)N3)n1` [Example I-11] is 2 nM; for `COc1cc(N2CCC(N3CCN(S(C)(=O)=O)CC3)CC2)ccc1Nc1ncc(C(F)(F)F)c(NCc2cccc3c2C(C)(C)C(=O)N3)n1` [Example I-25] it is 7 nM.
Turning to `COc1cc(N2CCC(N3CCN(S(C)(=O)=O)CC3)CC2)ccc1Nc1ncc(C(F)(F)F)c(NCc2cccc3c2CC(=O)N3)n1` [Example I-26], the IC50 amounted to 9 nM.
Regarding `COc1cc(N2CCNCC2)ccc1Nc1ncc(C(F)(F)F)c(NCc2cccc3c2C(C)(C)C(=O)N3C)n1` [Example I-30], the IC50 amounted to 3 nM.
For the molecule `CCOc1cc(N2CCNCC2)ccc1Nc1ncc(C(F)(F)F)c(NCc2cccc3c2C(C)(C)C(=O)N3)n1` [Example I-33], the IC50 turned out to be 0.6 nM.
The value for `CN(C)CC(=O)N1CCC(c2ccc(Nc3ncc(Br)c(NCc4cccc5c4C(C)(C)C(=O)N5)n3)cc2)CC1` [Example I-42] was 0.79 nM; that for `CN(C)CC(=O)N1CCC(c2ccc(Nc3ncc(Cl)c(NCc4cccc5c4C(C)(C)C(=O)N5)n3)cc2)CC1` [Example I-43] was 7 nM.
The figure for `CC(C)(C)OC(=O)N1CCC[C@H]1C(=O)N1CCC(c2ccc(Nc3ncc(Cl)c(NCc4cccc5c4C(C)(C)C(=O)N5)n3)cc2)CC1` [Example I-44] is 25 nM.
As to `CC(C)(C)OC(=O)NCC(=O)N1CCC(c2ccc(Nc3ncc(Cl)c(NCc4cccc5c4C(C)(C)C(=O)N5)n3)cc2)CC1` [Example I-45], the IC50 is 23 nM.
The figure for `CN(CC(=O)N1CCC(c2ccc(Nc3ncc(Cl)c(NCc4cccc5c4C(C)(C)C(=O)N5)n3)cc2)CC1)C(=O)OC(C)(C)C` [Example I-46] is 29 nM; for `CC(C)(C)OC(=O)N1CC(C(=O)N2CCC(c3ccc(Nc4ncc(Cl)c(NCc5cccc6c5C(C)(C)C(=O)N6)n4)cc3)CC2)C1` [Example I-47] it is 38 nM.
For the molecule `CC1(C)C(=O)Nc2cccc(CNc3nc(Nc4ccc(C5CCN(C(=O)[C@@H]6CCCN6)CC5)cc4)ncc3Cl)c21` [Example I-49], the IC50 was found to be 5 nM.
The value for `CC1(C)C(=O)Nc2cccc(CNc3nc(Nc4ccc(C5CCN(C(=O)CN)CC5)cc4)ncc3Cl)c21` [Example I-50] was 3 nM; that for `CNCC(=O)N1CCC(c2ccc(Nc3ncc(Cl)c(NCc4cccc5c4C(C)(C)C(=O)N5)n3)cc2)CC1` [Example I-51] was 2 nM; that for `CC1(C)C(=O)Nc2cccc(CNc3nc(Nc4ccc(C5CCN(C(=O)C6CNC6)CC5)cc4)ncc3Cl)c21` [Example I-52] was 7 nM.
The figure for `COc1cc(C2CCN(C(=O)CN(C)C)CC2)ccc1Nc1ncc(Cl)c(NCc2cccc3c2C(C)(C)C(=O)N3)n1` [Example I-58] is 1 nM; for `COc1cc(N2CCN(C(=O)CCN3CCCC3)CC2)ccc1Nc1ncc(Cl)c(NCc2cccc3c2C(C)(C)C(=O)N3)n1` [Example I-59] it is 4 nM; for `COc1cc(N2CCN(C(=O)C3CCN(C)CC3)CC2)ccc1Nc1ncc(Cl)c(NCc2cccc3c2C(C)(C)C(=O)N3)n1` [Example I-60] it is 3 nM.
For the molecule `COc1cc(N2CCN(C(=O)CN3CCN(C)CC3)CC2)ccc1Nc1ncc(Cl)c(NCc2cccc3c2C(C)(C)C(=O)N3)n1` [Example I-61], the IC50 amounted to 3 nM.
The value for `COc1cc(N2CCN(C(=O)CN(C)C)CC2)ccc1Nc1ncc(Cl)c(NCc2cccc3c2C(C)(C)C(=O)N3)n1` [Example I-62] was 1 nM; that for `COc1cc(N2CCN(C(=O)C3CCCN(C)C3)CC2)ccc1Nc1ncc(Cl)c(NCc2cccc3c2C(C)(C)C(=O)N3)n1` (stereo not drawn) [Example I-63] was 2 nM; that for `COc1cc(N2CCN(C(=O)CCCN(C)C)CC2)ccc1Nc1ncc(Cl)c(NCc2cccc3c2C(C)(C)C(=O)N3)n1` [Example I-64] was 2 nM.
The value for `COc1cc(N2CCN(C(C)=O)CC2)ccc1Nc1ncc(C(F)(F)F)c(NCc2cccc3c2CC(=O)N3)n1` [Example I-70] was 21 nM; that for `COc1cc(N2CCN(C(=O)N(C)C)CC2)ccc1Nc1ncc(C(F)(F)F)c(NCc2cccc3c2CC(=O)N3)n1` [Example I-71] was 50 nM; that for `CCOC(=O)N1CCN(c2ccc(Nc3ncc(C(F)(F)F)c(NCc4cccc5c4CC(=O)N5)n3)c(OC)c2)CC1` [Example I-72] was 72 nM.
Take `COC(=O)N1CCN(c2ccc(Nc3ncc(C(F)(F)F)c(NCc4cccc5c4C(C)(C)C(=O)N5)n3)c(OC)c2)C[C@H]1C` [Example I-73]: the IC50 was determined as 29 nM.
As for `CN(C)CCCC(=O)N1CCC(c2ccc(Nc3ncc(C(F)(F)F)c(NCc4cccc5c4C(C)(C)C(=O)N5)n3)cc2)CC1` [Example I-74], the half-inhibitory concentration (IC50) came out at 2 nM.
Take `CN(C)CC(=O)N1CCC(c2ccc(Nc3ncc(C(F)(F)F)c(NCc4cccc5c4C(C)(C)C(=O)N5)n3)cc2)CC1` [Example I-75]: the IC50 turned out to be 2 nM.
The value for `COc1cc(N2CCN(C(=O)N(C)C)CC2)ccc1Nc1ncc(C(F)(F)F)c(NCc2cccc3c2C(C)(C)C(=O)N3)n1` [Example I-76] was 11 nM; that for `COc1cc(N2CCN(C(C)=O)CC2)ccc1Nc1ncc(C(F)(F)F)c(NCc2cccc3c2C(C)(C)C(=O)N3)n1` [Example I-77] was 3 nM.
The value for `CCOc1cc(N2CCN(C(C)=O)CC2)ccc1Nc1ncc(C(F)(F)F)c(NCc2cccc3c2CC(=O)N3)n1` [Example I-78] was 30 nM.
The figure for `CCOc1cc(N2CCN(C(C)=O)CC2)ccc1Nc1ncc(C(F)(F)F)c(NCc2cccc3c2C(C)(C)C(=O)N3)n1` [Example I-79] is 4 nM; for `COc1cc(N2CC3CC2CN3C(C)=O)ccc1Nc1ncc(C(F)(F)F)c(NCc2cccc3c2C(C)(C)C(=O)N3)n1` (stereo not drawn) [Example I-80] it is 47 nM; for `COc1cc(N2CC3CC2CN3C(=O)N(C)C)ccc1Nc1ncc(C(F)(F)F)c(NCc2cccc3c2C(C)(C)C(=O)N3)n1` (stereo not drawn) [Example I-81] it is 81 nM.
For the molecule `COC(=O)N1CC2CC1CN2c1ccc(Nc2ncc(C(F)(F)F)c(NCc3cccc4c3C(C)(C)C(=O)N4)n2)c(OC)c1` (stereo not drawn) [Example I-82], the IC50 stood at 65 nM.
The value for `COCC(=O)N1CCN(c2ccc(Nc3ncc(C(F)(F)F)c(NCc4cccc5c4C(C)(C)C(=O)N5)n3)c(OC)c2)CC1` [Example I-83] was 5 nM.
The value for `COc1cc(N2CCN(C(=O)CN(C)C)CC2)ccc1Nc1ncc(C(F)(F)F)c(NCc2cccc3c2C(C)(C)C(=O)N3)n1` [Example I-84] was 0.3 nM; that for `COCCC(=O)N1CCN(c2ccc(Nc3ncc(C(F)(F)F)c(NCc4cccc5c4C(C)(C)C(=O)N5)n3)c(OC)c2)CC1` [Example I-85] was 9 nM.
For the molecule `COc1cc(N2CCN(C(=O)CCCN(C)C)CC2)ccc1Nc1ncc(C(F)(F)F)c(NCc2cccc3c2C(C)(C)C(=O)N3)n1` [Example I-86], the half-maximal inhibitory concentration (IC50) was 1 nM.

The values are drawn from patent US8546443B2, “Benzylic oxindole pyrimidines” (Boehringer Ingelheim International GmbH, priority 2010, dated 2013).
